Legend:
[1] = system: skin; conditions: systemic administration, clinical use; cited from earlier work
[2] = system: subfoveal choroidal neovascularization (CNV); conditions: cases followed for 3 months after a single PDT treatment; cited from earlier work
[3] = system: choroidal neovascularization (CNV); conditions: after re-treatment; cited from earlier work
[4] = system: choroidal neovascularization (CNV); conditions: cited from earlier work
[5] = system: classic CNV; conditions: 3 months after initial PDT treatment; cited from earlier work
[6] = system: neovasculature of the eye (advanced AMD); test: Clinical trial of PDT with Talaporfin Sodium and 664 nm laser light in 9 human subjects with advanced AMD; type: in vivo
From the text: A clinical trial of 9 human subjects with advanced AMD was arranged. The 9 subjects were each treated with PDT using Talaporfin Sodium, and a laser light at 664 nm wavelength as the excitation light source. The Table as provided in FIG. 1 describes the results of and details of the PDT procedures performed on the 9 subjects.

Question: For `CCOC(=O)C1=Cc2c3nc(cc4nc(cc5[n-]c(cc6[n-]c2c(C)c6CC)c(C)c5CC)C(C)=C4CC)[C@@H](C)[C@]13CC.[Cl-].[Cl-].[Sn]` (racemic) [Purlytin], which “duration of skin photosensitivity” value [1] is on record?
Answer: Its value is “several weeks”.

Question: Which “duration of skin photosensitivity” value [1] does the source give for sodium porfimer [Photophrine] here?
Answer: The value was “up to 6 weeks”.

Question: For `Oc1cccc(-c2c3nc(c(-c4cccc(O)c4)c4ccc([nH]4)c(-c4cccc(O)c4)c4nc(c(-c5cccc(O)c5)c5ccc2[nH]5)CC4)C=C3)c1` [Foscan], which “duration of skin photosensitivity” value [1] is on record?
Answer: Its value is “several weeks”.

Question: With verteporfin as the compound, how does the “cases with progression of classic CNV beyond the area of CNV identified before treatment” value [2] read?
Answer: The value was 51%.

Question: What about the “leakage activity compared to baseline leakage” value [3] of the same compound?
Answer: The value was “appeared to be reduced”.

Question: And the “subject eyes that maintained CNV closure” value ([4]; after 1 week)?
Answer: The value was 83%.

Question: And the eyes showing closure ([4]; after 5 weeks)?
Answer: Its eyes showing closure is 9%.

Question: And the “eyes showing leakage had recommenced” value ([4]; after 5 weeks, excluding one eye removed from test data)?
Answer: The value was 91%.

Question: And the “eyes scheduled for retreatment” value [5]?
Answer: Its value is 90.8%.

Question: What about the “eyes with classic CNV present that displayed leakage from classic CNV again” value [5] of the same compound?
Answer: The value was 92.8%.

Question: For `C=Cc1c(C)c2cc3nc(c(CC(=O)N[C@@H](CC(=O)O)C(=O)O)c4[nH]c(cc5nc(cc1[nH]2)C(C)=C5CC)c(C)c4C(=O)O)[C@@H](CCC(=O)O)[C@@H]3C` [Talaporfin Sodium, mono-L-aspartyl-chlorin e6], which “extended period of enhanced neovasculature occlusive effect” value ([6]; most patients of 9 subjects, laser light 664 nm) is on record?
Answer: The value was at least 15 weeks.

Question: What about the “retina and leakage after treatment” value ([6]; subjects 1 and 3, who had leakage causing serious elevation of the retina) of the same compound?
Answer: Its value is “the retina appeared more flat and leakage had apparently ceased”.

Question: And the “re-opening of treated vessels during subsequent observations” value ([6]; subjects studied, FIG. 1)?
Answer: Its value is “no indication of re-opening of vessels”.
